Source: PMC7305796 (Antiviral research, 2019)

Experiments:
VEEV TC-83 [1] = experiment: microbe, parasite or virus in culture; format: cell-based; conditions: Venezuelan equine encephalitis virus, Vero 76, 48 h, read-out: VEEV EC50
VEEV TC-83 [2] = format: cell-based, Venezuelan equine encephalitis virus
[3] = mouse, microsomes
[4] = mouse
[5] = mouse; remark: listed apart in the source
VEEV TC-83 [6] = conditions: mouse, in vivo; cited from earlier work
[7] = test system: VEEV Trinidad Donkey (TrD); parameters: species or system BALB/c mice; conditions: mouse, in vivo

CN1CCN(C)/C(=N/c2ccc([N+](=O)[O-])cc2C(=O)Nc2ccccc2)C1 [ML336, (E)-2-((1,4-dimethylpiperazin-2-ylidene)amino)-5-nitro-N-phenylbenzamide]
EC50 (VEEV TC-83 [1]): 32 ± 5 nM
VEEV log titer reduction (VEEV TC-83 [2]): 7.0 ± 0.4 log
Microsomal stability, % parent after 1h [3]: 42.9%
plasma protein binding, % bound at 1 μM [4]: 85.0 / 77.0%
plasma protein binding, % bound at 10 μM [4]: 85.0 / 77.0%
Plasma stability, % parent after 3h [5]: 65.4%
survival rate (VEEV TC-83 [6]): 71%
protection of mice (survival) [7]: 100%
